{"source": "patent US20120264611A1", "about": "“Pesticide Preparations Containing Derivatives Of Pyrrolidone-4-Carboxylic Acid” (CLARIANT FINANCE (BVI) LIMITED, priority 2009, published 2012)", "key": {"[1]": {"tested_on": "tomato plants (cv. Astona F1)", "experiment": "Determination of phytotoxicity on tomato plants (auxiliaries sprayed without pesticide)", "format": "in vivo", "protocol": "The phytotoxicity is determined on tomato plants (cv. Astona F1), a species which, as is known, is sensitive to phytotoxic substances taken up via the leaf surface (“Phototoxicity of different classes of adjuvants”, H. de Ruiter, et al., Proceedings Fifth International Symposium on Adjuvants for Agrochemicals, 1998, Ed. P. McMullan, pp. 204-209).\nTomato plants (cv. Astona F1) are cultivated in a greenhouse under 14-hour light irradiation at a temperature of 18/12 (±0.5)° C. (day/night) and a relative atmospheric humidity of 70/80 (±5) % (day/night). 12 days after germination, the seedlings are transplanted into plastic pots having a diameter of 11 cm (one plant per pot) filled with a mixture of sand and soil (Soil No. 12, Colent b.v., Lent, the Netherlands) in a volume ratio of sand:soil=1:2.\nThe pots are placed on a subirrigation mat which was moistened daily with a nutrient solution of medium strength.\n28 days after sowing, the plants were treated at the 4-leaf stage, each plant having a height of 15-17 cm. The auxiliary content of the spray solution was 0.5% (v/v or % by volume).\nThe spray solutions are applied to the plants using an air pressure-operated laboratory sprayer such that the resulting application rate is 200 l/ha.\nThe treated plants are scored visually after 2 and 8 days (DAT; DAT: days after treatment) and evaluated using a qualitative scale (1 to 5). Here, 1=no discoloration or necrosis of the leaves to 5=complete necrosis of the treated leaf surface. Moreover, the above-ground plant mass is determined after 8 days (fresh weight). In each case, the average is calculated, based on the number of treated plants."}, "[2]": {"tested_on": "Wild oats (Avena fatua, AVEFA)", "experiment": "Increase of the biological activity of glyphosate by adjuvants, greenhouse trial (tank mix method)", "format": "in vivo", "details": "21 days", "excerpt": "Here, 50% strength solutions are used. In the case of compound 1, triethanolamine is additionally added to dissolve the acid.\nBy mixing these tank mix solutions with a commercial aqueous solution of glyphosate isopropylammonium (comprising 62% by weight of the active compound glyphosate IPA salt; IPA: isopropylammonium) and further addition of water, a preparation according to the invention is formed. The ratio of glyphosate (based on the acid equivalent) to adjuvant corresponds to that which is also found in commercially available glyphosate formulations.\nFor easier monitoring of the adjuvant effects, reduced doses of glyphosate are used; the application rate is 135.2 g a.e./ha glyphosate IPA salt (corresponding to 4.0 mmol or 0.68 g a.e./l at a liquid volume of 200 l/ha). The abbreviation “a.e.” means “acid equivalent”.\nThe spray solutions comprise the following concentrations of adjuvant: 0.0141% (v/v).\nWild oats (Avena fatua, AVEFA) are cultivated in a greenhouse under 14 hours of light irradiation at a temperature of 18/12 (±0.5)° C. (day/night) and a relative atmospheric humidity of 70/80 (±5) % (day/night). Light is introduced via high-pressure mercury lamps and fluorescent tubes, resulting in a power of 70 W/m^2 (PAR; PAR: photosynthetically active radiation (400-700 nm)) on the leaf level. The plants are cultivated in plastic pots having a diameter of 11 cm, filled with a mixture of sand and soil (Soil No. 12, Colent b.v., Lent, the Netherlands) in a volume ratio of sand:soil=1:2.\nThe pots are placed on a subirrigation mat which is moistened daily with a nutrient solution of medium strength. After emergence, the AVEFA seedlings are divided into six plants per pot for the activity tests.\nThe spray solutions are used to carry out greenhouse trials. The effect of the adjuvants on the efficacy of glyphosate is tested.\nThe spray solutions are applied to the plants using an air pressure-operated laboratory sprayer, such that an application rate of 200 l/ha results.\nWild oats (AVEFA) are treated once they have reached the 2-3 leaf stage.\nThe efficacy of the herbicide is assessed after 21 days. To this end, the mass of the remaining above-ground plant parts (fresh weight (FW) in gram) is determined. This is shown in table 3, together with the calculated relative residual amount, compared to the untreated plant (in % by weight)."}}, "data": [{"compound": "CCCCCCCC/C=C\\CCCCCCCCN1CC(C(=O)O)CC1=O", "note": "(stereo not drawn) [Compound 1, N-oleyl-2-pyrrolidone-4-carboxylic acid]", "values": [{"measurement": "Visual evaluation (DAT 2)", "setting": "[1]; 2 days after treatment, qualitative scale 1 (no discoloration or necrosis of the leaves) to 5 (complete necrosis of treated leaf surface), average, auxiliary 0.5% (v/v), 200 l/ha, no pesticide", "result": 1.1}, {"measurement": "Visual evaluation (DAT 8)", "setting": "[1]; 8 days after treatment, qualitative scale 1 (no discoloration or necrosis of the leaves) to 5 (complete necrosis of treated leaf surface), average, auxiliary 0.5% (v/v), 200 l/ha, no pesticide", "result": 1.5}, {"measurement": "Fresh weight", "setting": "[1]; above-ground plant mass after 8 days, average, auxiliary 0.5% (v/v), 200 l/ha, untreated 8.6 g", "result": 8.6, "unit": "g"}, {"measurement": "Mass of the plants formed compared to the untreated plant (in words)", "setting": "[1]; summary of table 2, after 8 days", "result": "not reduced"}, {"measurement": "Phytotoxic reaction of the tomato plants (in words)", "setting": "[1]; summary of table 2, auxiliary 0.5% (v/v)", "result": "at most minimal signs of a phytotoxic reaction"}]}, {"compound": "O=C(O)CNCP(=O)(O)O", "note": "[Glyphosate, no adjuvant added, glyphosate isopropylammonium]", "values": [{"measurement": "Test 1, fresh weight of remaining above-ground plant parts", "setting": "[2]; glyphosate IPA salt 135.2 g a.e./ha, adjuvant 0.0141% (v/v), 200 l/ha, untreated 11.26", "result": 9.63, "unit": "g FW"}, {"measurement": "Mean of tests 1 and 2", "setting": "[2]; glyphosate IPA salt 135.2 g a.e./ha, adjuvant 0.0141% (v/v), 200 l/ha, untreated 12.97", "result": 11.54, "unit": "g FW"}, {"measurement": "Test 2, fresh weight of remaining above-ground plant parts", "setting": "[2]; glyphosate IPA salt 135.2 g a.e./ha, adjuvant 0.0141% (v/v), 200 l/ha, untreated 14.67", "result": 13.45, "unit": "g FW"}, {"measurement": "Residual amount", "setting": "[2]; calculated relative residual amount compared to the untreated plant (100)", "result": 89, "unit": "% by weight"}]}]}
